Measurements as given in patent US8372967B2, “Compounds and methods for modulating expression of GCCR” (Isis Pharmaceuticals, Inc., priority 2006, dated 2013).
Strand notation (5' to 3'): a small letter for the sugar, then the base; units joined by * are phosphorothioate-linked, units joined directly phosphodiester-linked; [ ] holds rarer units or linkages, { } end groups; capitals alone tell only the bases. e = 2'-O-(2-methoxyethyl) (MOE); l = locked nucleic acid (LNA); [5mC] = 5-methylcytosine; d = 2'-deoxy (DNA)

What was measured:
[1] = tested on: DGAT2 mRNA; assay: Antisense inhibition of DGAT2 in A10 cells, 75 nM (Table 81); type: cell-based, rat; details: approximately 24 hours
Experimental: Short antisense compounds targeted to a DGAT2 nucleic acid were tested for their effects on DGAT2 mRNA in vitro. Cultured A10 cells in a 96-well plate were treated with 75 nM of short antisense compound. After a treatment period of approximately 24 hours, RNA was isolated from the cells and DGAT2 mRNA levels were measured by quantitative real-time PCR, as described herein. DGAT2 mRNA levels were adjusted according to total RNA content as measured by RIBOGREEN®. Results are presented as percent inhibition of DGAT2, relative to untreated control cells in Table 81.

[2] = tested on: rat DGAT2 mRNA; assay: Dose-dependent inhibition of DGAT2 in A10 cells (Tables 82, 83); type: cell-based
Experimental: Additional short antisense compounds targeted to DGAT2 mRNA were tested in vitro in a dose-response experiment. A10 cells were prepared as described above and treated with 6.25, 12.5, 25.0, 50.0, 100.0, and 200.0 nM short antisense compounds to determine if DGAT2 inhibition occurs in a dose-dependent manner. […] Results are presented as percent inhibition, relative to untreated control cells.
Additional short antisense compounds targeted to DGAT2 mRNA were tested in vitro. A10 cells were prepared as described above and treated with 0.62, 1.85, 5.56, 16.67, 50.0, and 150.0 nM short antisense compounds to determine if DGAT2 inhibition occurs in a dose-dependent manner. DGAT2 mRNA was measured using quantitative real-time PCR, as described herein. […] Results are presented as percent inhibition of rat DGAT2, relative to untreated control cells.

[3] = tested on: rat SGLT2 mRNA; assay: Rat SGLT2 mRNA in kidney, 1-10-1 and 1-10-2 MOE gapmers, Sprague-Dawley rats (Table 63); type: in vivo
Excerpt: 1-10-1 and 1-10-2 MOE gapmer antisense compounds, provided in Table 62, were designed to target different regions of the mouse or rat SGLT2 RNA. All short antisense compounds in Table 62 are chimeric oligonucleotides (“gapmers”) either 12 or 13 nucleotides in length, composed of a central “gap” segment consisting of ten 2′-deoxynucleotides, which are flanked on the 5′ side by a one-nucleoside “wing” and on the 3′ side by a two or one-nucleotide “wing”. […] All cytidine residues are 5-methylcytidines.
The short antisense compounds were analyzed for their effect on rat SGLT2 mRNA levels. Data are ranges taken from three experiments in which Male Sprague-Dawley rats (170-200 g) were dosed twice per week for three weeks with 450, 150 or 50 nmol/kg of either a 1-10-1 or 1-10-2 MOE gapmer given by intraperitoneal injection. Rats were sacrificed 48 hours following last administration and evaluated for SGLT2 mRNA levels in kidney. Target levels were determined by RT, real-time PCR as described by other examples herein. PCR results were normalized to an internal ISIS control.

[4] = tested on: mouse SGLT2 mRNA; assay: Mouse SGLT2 mRNA in kidney, MOE versus Methyleneoxy BNA gapmers (Table 69); type: in vivo; details: Balb/c mouse kidney
Experimental: The effect of ISIS 3796921-10-1 MOE gapmer and ISIS 3886252-8-2 MOE gapmer are compared with the effect of ISIS 3921701-10-1 Methyleneoxy BNA Gapmer and ISIS 3921732-8-2 Methyleneoxy BNA Gapmer (see Table 69) on mouse SGLT2 mRNA levels in vivo. Data are taken from three experiments in which male 6-week old Balb/c mice were dosed twice per week for three weeks with 5, 25 and 125 nmol/kg of either the ISIS 3796921-10-1 MOE gapmer or the ISIS 3886252-8-2 MOE gapmer given by intraperitoneal injection. Mice were sacrificed 48 hours following last administration and evaluated for SGLT2 mRNA levels in kidney. Target levels were determined by RT, real-time PCR as described by other examples herein. PCR results were normalized to an internal ISIS control. The data are expressed as percent change (“+” indicates an increase, “−” indicates a decrease) relative to saline treated animals and are illustrated in Table 69.

[5] = 5 nmol/kg i.p. twice per week for three weeks
[6] = 25 nmol/kg i.p. twice per week for three weeks
[7] = 125 nmol/kg i.p. twice per week for three weeks

| Substance | % Control [1] [% Control] | percent inhibition of rat DGAT2 ([2]; 0.62 nM (Table 83)) [%] | percent inhibition of rat DGAT2 ([2]; 1.85 nM (Table 83)) [%] | percent inhibition of rat DGAT2 ([2]; 5.56 nM (Table 83)) [%] | percent inhibition of DGAT2 ([2]; 6.25 nM (Table 82)) [%] | percent inhibition of DGAT2 ([2]; 12.5 nM (Table 82)) [%] | percent inhibition of rat DGAT2 ([2]; 16.67 nM (Table 83)) [%] | percent inhibition of DGAT2 ([2]; 50.0 nM (Table 82)) [%] | percent inhibition of rat DGAT2 ([2]; 50 nM (Table 83)) [%] | percent inhibition of DGAT2 ([2]; 100.0 nM (Table 82)) [%] | percent inhibition of rat DGAT2 ([2]; 150 nM (Table 83)) [%] | percent inhibition of DGAT2 ([2]; 200.0 nM (Table 82)) [%] | % change in SGLT2 expression relative to saline ([3]; 50 nmol/kg i.p. twice per week for three weeks) [%] | % change in SGLT2 expression relative to saline ([3]; 150 nmol/kg i.p. twice per week for three weeks) [%] | % change in SGLT2 expression relative to saline ([3]; 450 nmol/kg i.p. twice per week for three weeks) [%] | SGLT2 mRNA, percent change relative to saline treated animals [4, 5] [%] | SGLT2 mRNA, percent change relative to saline treated animals [4, 6] [%] | SGLT2 mRNA, percent change relative to saline treated animals [4, 7] [%] |
| --- | --- | --- | --- | --- | --- | --- | --- | --- | --- | --- | --- | --- | --- | --- | --- | --- | --- | --- |
| 372586 (antisense eG*eT*dT*d[5mC]*d[5mC]*dT*dG*dG*dT*dG*dG*dT*e[5mC]*eA) [compound 372586] | 40 | 0 | 0 | 0 | 19 | 0 | 0 | 22 | 7 | 45 | 55 | 77 | – | – | – | – | – | – |
| 372594 (antisense eA*e[5mC]*dA*dG*dA*dA*dG*dG*d[5mC]*dA*d[5mC]*d[5mC]*e[5mC]*eA) [compound 372594] | 77 | 0 | 0 | 0 | – | – | 0 | – | 2 | – | 15 | – | – | – | – | – | – | – |
| 372602 (antisense e[5mC]*e[5mC]*dA*dG*dG*d[5mC]*dA*dT*dG*dG*dA*dG*e[5mC]*eT) [compound 372602] | 39 | 0 | 0 | 10 | 0 | 0 | 0 | 18 | 19 | 47 | 51 | 76 | – | – | – | – | – | – |
| 372618 (antisense eG*eT*dG*dG*dT*dA*d[5mC]*dA*dG*dG*dT*d[5mC]*eG*eA) [compound 372618] | 29 | 0 | 0 | 0 | 0 | 5 | 0 | 27 | 30 | 65 | 60 | 80 | – | – | – | – | – | – |
| 372624 (antisense eT*eG*dG*dT*d[5mC]*dT*dT*dG*dT*dG*dA*dT*eT*eG) [compound 372624] | 56 | 0 | 0 | 0 | – | – | 1 | – | 16 | – | 38 | – | – | – | – | – | – | – |
| ISIS 382675 (eT*dA*dG*d[5mC]*d[5mC]*dA*d[5mC]*d[5mC]*dA*dA*d[5mC]*eT*eG) | – | – | – | – | – | – | – | – | – | – | – | – | −50 | −65 | −80 | – | – | – |
| ISIS 392170: 1-10-1 Methyleneoxy BNA Gapmer, SGLT2 (lT*dG*dT*dT*d[5mC]*d[5mC]*dA*dG*d[5mC]*d[5mC]*d[5mC]*lA) | – | – | – | – | – | – | – | – | – | – | – | – | – | – | – | −23 | −54 | −69 |
| ISIS 392173: 2-8-2 Methyleneoxy BNA Gapmer, SGLT2 (lT*lG*dT*dT*d[5mC]*d[5mC]*dA*dG*d[5mC]*d[5mC]*l[5mC]*lA) | – | – | – | – | – | – | – | – | – | – | – | – | – | – | – | −44 | −57 | −75 |
